Results: patent US10745390B2, “Small molecule activators of mitochondrial function” (THE TRUSTEES OF THE UNIVERSITY OF PENNSYLVANIA, priority 2008, dated 2020)

The compounds below were run on I154F FA cells (assay: I154F frataxin point-mutation model, rescue from FAC and/or BSO). Details: not given.
Format: cell-based, murine
Source text: 2. Preliminary testing in the I154F frataxin point-mutation model determines whether test compounds can rescue I154F FA cells from lethal concentrations of FAC and/or BSO. Among the mammalian-cell models that have, or recapitulate, the genetic defects underlying FA, by far the most robust (and best validated) is the I154F murine frataxin point-mutation model developed by Puccio and colleagues (Calmels, N. et al.), the first cellular model based on frataxin missense mutations that reproduces spontaneously the defects associated with Friedreich ataxia (PLoS One 4, e6379 (2009)). […] This model is also extremely stable, with phenotypes unchanged after months of continuous culture. In contrast, the mutations in available primary human FA fibroblasts are GAA repeat expansions in the first intron of the FXN gene; occasional cells in which these expansions contract have a growth advantage and take over the culture, diluting the phenotype and increasing variance in various measures of compound efficacy.
In another screen, testing was conducted in the I154F point-mutation model as described above, to determine whether test compounds could rescue I154F FA cells from lethal or sublethal concentrations of FAC and/or BSO. Effective in this screen were the following compounds: N-[(5-chloro-8-hydroxyquinolin-7-yl)-thiophen-2-ylmethyl]-3-phenylpropanamide, N-[(5-chloro-8-hydroxyquinolin-7-yl)-thiophen-2-ylmethyl]pentanamide, N-[(5-chloro-8-hydroxyquinolin-7-yl)-furan-2-ylmethyl]-3-phenylpropanamide, N-[(5-chloro-8-hydroxyquinolin-7-yl)-furan-2-ylmethyl]propanamide, N-[(5-chloro-8-hydroxyquinolin-7-yl)-furan-2-ylmethyl]pentanamide, N-[(5-chloro-8-hydroxyquinolin-7-yl)-tolyl]-3-phenylpropanamide, N-[(5-chloro-8-hydroxyquinolin-7-yl)-(3-methoxyphenyl)methyl]-3-phenylpropanamide, N-[(5-chloro-8-hydroxyquinolin-7-yl)-(4-dimethylaminophenyl)methyl]-3-phenylpropanamide, N-[(5-chloro-8-hydroxyquinolin-7-yl)-(4-chlorophenyl)methyl]-3-phenylpropanamide, N-[(5-chloro-8-hydroxyquinolin-7-yl)-(3-chlorophenyl)methyl]-3-phenylpropanamide, N-[(5-chloro-8-hydroxyquinolin-7-yl)-(2-chlorophenyl)methyl]-3-phenylpropanamide, N-[(5-chloro-8-hydroxyquinolin-7-yl)-(3,4-dimethoxyphenyl)methyl]-3-phenylpropanamide, N-[(5-chloro-8-hydroxyquinolin-7-yl)-(2,4-dimethoxyphenyl)methyl]-3-phenylpropanamide, N-[(5-chloro-8-hydroxyquinolin-7-yl)-(3,4,5-trimethoxyphenyl)methyl]-3-phenylpropanamide, N-[(5-chloro-8-hydroxyquinolin-7-yl)-(2-bromophenyl)methyl]-3-phenylpropanamide, N-[(5-chloro-8-hydroxyquinolin-7-yl)-p-tolyl-methyl]-3-phenylpropanamide, N-[(5-chloro-8-hydroxyquinolin-7-yl)-(2-hydroxyphenyl)methyl]-3-phenylpropanamide (1a-18), and N-[(5-chloro-8-hydroxyquinolin-7-yl)-(4-methoxyphenyl)methyl]-3-phenylpropanamide.
`O=C(CCc1ccccc1)NC(c1ccccc1Cl)c1cc(Cl)c2cccnc2c1O` (centres unmarked) [N-[(5-chloro-8-hydroxyquinolin-7-yl)-(2-chlorophenyl)methyl]-3-phenylpropanamide] was tested, and the “rescue of I154F FA cells from lethal or sublethal concentrations of FAC and/or BSO” value (shortened to “rescue of I154F FA cells”) was “Effective”.
With `COc1cccc(C(NC(=O)CCc2ccccc2)c2cc(Cl)c3cccnc3c2O)c1` (centres unmarked) [N-[(5-chloro-8-hydroxyquinolin-7-yl)-(3-methoxyphenyl)methyl]-3-phenylpropanamide] the “rescue of I154F FA cells” value was “Effective”.
`O=C(CCc1ccccc1)NC(c1ccccc1Br)c1cc(Cl)c2cccnc2c1O` (centres unmarked) [N-[(5-chloro-8-hydroxyquinolin-7-yl)-(2-bromophenyl)methyl]-3-phenylpropanamide] was tested, and the “rescue of I154F FA cells” value was “Effective”.
With `COc1ccc(C(NC(=O)CCc2ccccc2)c2cc(Cl)c3cccnc3c2O)cc1OC` (centres unmarked) [N-[(5-chloro-8-hydroxyquinolin-7-yl)-(3,4-dimethoxyphenyl)methyl]-3-phenylpropanamide] the “rescue of I154F FA cells” value was “Effective”.
In the case of `COc1ccc(C(NC(=O)CCc2ccccc2)c2cc(Cl)c3cccnc3c2O)cc1` (centres unmarked) [N-[(5-chloro-8-hydroxyquinolin-7-yl)-(4-methoxyphenyl)methyl]-3-phenylpropanamide], the “rescue of I154F FA cells” value is reported as “Effective”.
With `COc1cc(C(NC(=O)CCc2ccccc2)c2cc(Cl)c3cccnc3c2O)cc(OC)c1OC` (centres unmarked) [N-[(5-chloro-8-hydroxyquinolin-7-yl)-(3,4,5-trimethoxyphenyl)methyl]-3-phenylpropanamide] the “rescue of I154F FA cells” value was “Effective”.
`O=C(CCc1ccccc1)NC(c1ccc(Cl)cc1)c1cc(Cl)c2cccnc2c1O` (centres unmarked) [N-[(5-chloro-8-hydroxyquinolin-7-yl)-(4-chlorophenyl)methyl]-3-phenylpropanamide] was tested, and the “rescue of I154F FA cells” value was “Effective”.
`COc1ccc(C(NC(=O)CCc2ccccc2)c2cc(Cl)c3cccnc3c2O)c(OC)c1` (centres unmarked) [N-[(5-chloro-8-hydroxyquinolin-7-yl)-(2,4-dimethoxyphenyl)methyl]-3-phenylpropanamide] was tested, and the “rescue of I154F FA cells” value was “Effective”.
For `O=C(CCc1ccccc1)NC(c1ccco1)c1cc(Cl)c2cccnc2c1O` (centres unmarked) [N-[(5-chloro-8-hydroxyquinolin-7-yl)-furan-2-ylmethyl]-3-phenylpropanamide], the “rescue of I154F FA cells” value was “Effective”.
In the case of `Cc1ccc(C(NC(=O)CCc2ccccc2)c2cc(Cl)c3cccnc3c2O)cc1` (centres unmarked) [N-[(5-chloro-8-hydroxyquinolin-7-yl)-p-tolyl-methyl]-3-phenylpropanamide], the “rescue of I154F FA cells” value is reported as “Effective”.
For `CCCCC(=O)NC(c1ccco1)c1cc(Cl)c2cccnc2c1O` (centres unmarked) [N-[(5-chloro-8-hydroxyquinolin-7-yl)-furan-2-ylmethyl]pentanamide], the “rescue of I154F FA cells” value was “Effective”.
With `CCC(=O)NC(c1ccco1)c1cc(Cl)c2cccnc2c1O` (centres unmarked) [N-[(5-chloro-8-hydroxyquinolin-7-yl)-furan-2-ylmethyl]propanamide] the “rescue of I154F FA cells” value was “Effective”.
In the case of `O=C(CCc1ccccc1)NC(c1cccc(Cl)c1)c1cc(Cl)c2cccnc2c1O` (centres unmarked) [N-[(5-chloro-8-hydroxyquinolin-7-yl)-(3-chlorophenyl)methyl]-3-phenylpropanamide], the “rescue of I154F FA cells” value is reported as “Effective”.
For `CN(C)c1ccc(C(NC(=O)CCc2ccccc2)c2cc(Cl)c3cccnc3c2O)cc1` (centres unmarked) [N-[(5-chloro-8-hydroxyquinolin-7-yl)-(4-dimethylaminophenyl)methyl]-3-phenylpropanamide], the “rescue of I154F FA cells” value was “Effective”.
For `O=C(CCc1ccccc1)NC(c1ccccc1O)c1cc(Cl)c2cccnc2c1O` (centres unmarked) [N-[(5-chloro-8-hydroxyquinolin-7-yl)-(2-hydroxyphenyl)methyl]-3-phenylpropanamide], the “rescue of I154F FA cells” value was “Effective”.

Each compound was assayed on yeast lacking Yfh1p (assay: Yeast-based screening assay (WST-1 tetrazolium dye reduction)). Details: glycerol medium, 72 h, OD450, single dose 50 uM, activity threshold >1.32 fold increase in absorbance.
Format: cell-based
Experimental: The aim of this assay is to identify compounds that can improve mitochondrial function in yeast lacking Yfh1p grown in a non-fermentable growth medium. The yeast Yfh1p expression construct used in this study has a galactose-inducible, glucose-repressible promoter driving Yfh1p production. Yfh1p is expressed when yeast are grown in the presence of galactose and inhibited when they are grown in the presence of dextrose. Growing the cells in the presence of dextrose not only turns off the expression of Yfh1p, but also leads to the depletion of Yfh1p in the cells. Transferring the Yfh1p-depleted cells into a non-fermentable, glycerol-based medium dictates that the yeast must use an oxidative pathway. […] Cleavage of the tetrazolium salt to formazan is accompanied by an increase in absorbance at 450 nm.
Compounds in the single dose assay were evaluated on the basis of Fold Induction compared to yeast only, and those in the dose response assay on percent activation, i.e. percent induction of tetrazolium dye reduction in yeast grown in a non-fermentable growth medium. Percent activation was calculated using the optical density in control wells with cells treated with positive control compound (25 uM methyl 4-(1, 2, 4, 5-tetraazin-3-yl) phenyl ether (MLSMR External ID: MLS000550612; PubChem SID: 14718875)) as full induction of tetrazolium dye reduction (100% activation), and wells with cells grown in medium without methyl 4-(1, 2, 4, 5-tetraazin-3-yl) phenyl ether as an indicator of 0% activation. Library compounds were screened at 50 uM. From the 50 uM single dose assay, 1250 compounds with significant tetrazolium dye reduction were selected for confirmatory dose response assay. These compounds were screened in a 10-point dilution series ranging from 0.01 to 100 uM.
The following screening protocol was followed. Yeast cells containing an inducible/repressible promoter for Yfh1p expression were cultured in induction medium (Yfh1 on) with Galactose as the carbon source, and then shifted to repression medium (Yfh1 off) with Dextrose as the carbon source (for 24 hours) to allow Yfh1 protein to decay. The cells were then incubated for 24 h in respiration-only medium (Yfh1 off) with Glycerol as the carbon source to allow cells to equilibrate, and then plated in 384 well plates in respiration-only medium (Yfh1 off) with glycerol as carbon source, in the presence of Tetrazolium dye (WST-1) for 72 hours.
Preparation of Assay • 1. Cells were streaked out on a YPGal agar plate and grown inverted for 3 days at 30 C. • 2. A colony was selected and 10 mL of YPGal medium inoculated and grown over night at 30 C with shaking. • 3. The cells were counted on a coulter counter, centrifuged at 1400 g for 5 min in dextrose (CSMM-D) medium, washed twice to remove all galactose, and resuspended in CSMM-D medium at a cell density of 2 to the power of 5 cells/mL. • 4. Frozen stocks were prepared at this point, in dextrose medium. For these dextrose stock solutions, enough culture was grown in dextrose media over night with shaking at 30 C, to get a cell density of ˜2 to the power of 7 cells/mL. The cells were centrifuged at 1400 g for 5 min and the pellet resuspended in glycerol freezing medium at a cell density of 2 to the power of 8 cells/mL. • 5. The day before the screen, frozen culture was thawed at room temperature and resuspended in glycerol (CSMM-G) medium. • 6. The culture was grown over night at 30 C with shaking and the cells counted and diluted in CSMM-G medium for a final cell density of 4 to the power of 6 cells/mL. • 7. Methyl 4-(1, 2, 4, 5-tetraazin-3-yl) phenyl ether (positive control), CSMM-G medium alone (negative control) and compounds were plated with DMSO at 200× concentration (final concentrations: methyl 4-(1, 2, 4, 5-tetraazin-3-yl) phenyl ether 25 uM, compounds 50 uM, DMSO 0.5%) in 384-well plates: 125 nL/well. For the dose response assay, compounds were plated in a 10-point dilution series ranging from 0.01 to 100 uM, at 1% DMSO. • 8. […]
With `CCCC(=O)NC(c1ccco1)c1cc([N+](=O)[O-])c2cccnc2c1O` (centres unmarked) [N-[2-furyl(8-hydroxy-5-nitro-7-quinolinyl)methyl]butanamide] the “active in the screen (tetrazolium dye reduction)” value was “active”.
For `CC(=O)NC(c1ccc(C)cc1)c1cc([N+](=O)[O-])c2cccnc2c1O` (centres unmarked) [N-[{8-hydroxy-5-nitro-7-quinolinyl}(4-methylphenyl)methyl]acetamide], the “active in the screen (tetrazolium dye reduction)” value was “active”.
For `CCCC(=O)NC(c1cccs1)c1cc([N+](=O)[O-])c2cccnc2c1O` (centres unmarked) [N-[(8-hydroxy-5-nitroquinolin-7-yl)-thiophen-2-ylmethyl]butanamide], the “active in the screen (tetrazolium dye reduction)” value was “active”.
For `CCC(=O)NC(c1ccc(OC)c(OC)c1)c1cc(Cl)c2cccnc2c1O` (centres unmarked) [N-[(5-chloro-8-hydroxyquinolin-7-yl)-(3,4-dimethoxyphenyl)methyl]propanamide], the “active in the screen (tetrazolium dye reduction)” value was “active”.
`CCC(=O)NC(c1cccs1)c1cc([N+](=O)[O-])c2cccnc2c1O` (centres unmarked) [N-[(8-hydroxy-5-nitro-quinolin-7-yl)-thiophen-2-yl-methyl]-propionamide] was tested, and the “active in the screen (tetrazolium dye reduction)” value was “active”.
With `CC(=O)NC(c1cccs1)c1cc([N+](=O)[O-])c2cccnc2c1O` (centres unmarked) [N-[(8-hydroxy-5-nitro-quinolin-7-yl)-thiophen-2-yl-methyl]-acetamide] the “active in the screen (tetrazolium dye reduction)” value was “active”.
For `CCC(=O)NC(c1ccc(C)cc1)c1cc([N+](=O)[O-])c2cccnc2c1O` (centres unmarked) [N-[(8-Hydroxy-5-nitro-quinolin-7-yl)-p-tolyl-methyl]-propionamide], the “active in the screen (tetrazolium dye reduction)” value was “active”.
In the case of `CCCCC(=O)NC(c1ccccc1OC)c1ccc2cccnc2c1O` (centres unmarked) [N-[(8-hydroxyquinolin-7-yl)-(2-methoxyphenyl)methyl]pentanamide], the “active in the screen (tetrazolium dye reduction)” value is reported as “active”.
